One data set addresses T1, CDK2 (Homo sapiens, UniProt P24941).
T1 construct: purchased DiscoveRx (KinomeScan service)
The experiment in a line: KinomeScan. The conditions noted are these: read-out: % Control. Format: binding.

The target of another data set is T2, MAP4K5 (Homo sapiens, UniProt Q9Y4K4).
T2 construct: purchased DiscoveRx (Fremont, CA)
Briefly: KinomeScan. Type of data set: binding. The conditions noted are these: read-out: % Control.

For the next data set, the target named is T3, MLK1 (Homo sapiens, UniProt P80192).
T3 construct: purchased DiscoveRx
T3 sequence (P80192 whole entry): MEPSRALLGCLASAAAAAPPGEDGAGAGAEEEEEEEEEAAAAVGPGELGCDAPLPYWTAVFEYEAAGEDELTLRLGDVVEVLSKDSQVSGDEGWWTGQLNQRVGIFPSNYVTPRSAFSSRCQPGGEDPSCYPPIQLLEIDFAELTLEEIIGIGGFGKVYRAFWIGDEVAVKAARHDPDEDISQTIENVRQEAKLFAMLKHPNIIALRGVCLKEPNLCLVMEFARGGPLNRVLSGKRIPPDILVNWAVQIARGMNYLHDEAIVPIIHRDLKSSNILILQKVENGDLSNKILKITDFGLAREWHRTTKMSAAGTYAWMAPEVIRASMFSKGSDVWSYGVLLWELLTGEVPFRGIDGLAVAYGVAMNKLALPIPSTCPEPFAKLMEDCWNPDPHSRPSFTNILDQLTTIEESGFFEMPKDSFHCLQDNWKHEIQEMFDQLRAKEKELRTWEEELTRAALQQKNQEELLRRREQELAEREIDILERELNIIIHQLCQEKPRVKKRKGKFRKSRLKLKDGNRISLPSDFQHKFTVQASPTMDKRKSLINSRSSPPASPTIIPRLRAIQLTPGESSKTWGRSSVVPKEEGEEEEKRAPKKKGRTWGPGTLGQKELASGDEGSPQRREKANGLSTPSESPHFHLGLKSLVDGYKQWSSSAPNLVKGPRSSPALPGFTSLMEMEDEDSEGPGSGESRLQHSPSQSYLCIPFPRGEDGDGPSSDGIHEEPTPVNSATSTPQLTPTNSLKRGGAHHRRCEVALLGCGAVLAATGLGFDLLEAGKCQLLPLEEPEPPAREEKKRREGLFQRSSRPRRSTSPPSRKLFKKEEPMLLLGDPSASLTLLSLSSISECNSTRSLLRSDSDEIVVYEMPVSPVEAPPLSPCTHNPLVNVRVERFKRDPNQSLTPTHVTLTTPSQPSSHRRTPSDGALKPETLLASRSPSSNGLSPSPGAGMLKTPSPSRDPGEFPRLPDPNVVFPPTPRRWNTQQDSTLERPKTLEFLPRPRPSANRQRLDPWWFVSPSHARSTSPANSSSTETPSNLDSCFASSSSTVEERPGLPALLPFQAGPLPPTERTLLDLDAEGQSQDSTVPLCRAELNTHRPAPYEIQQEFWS
The experiment in a line: KinomeScan. Type of data set: binding. The conditions noted are these: read-out: % Control.

The next data set deals with T4, 5-HT2A (Homo sapiens, UniProt P28223).
T4 construct: host or cells: Chem-1 cells with promiscuous Gα15
T4 sequence (P28223 whole entry): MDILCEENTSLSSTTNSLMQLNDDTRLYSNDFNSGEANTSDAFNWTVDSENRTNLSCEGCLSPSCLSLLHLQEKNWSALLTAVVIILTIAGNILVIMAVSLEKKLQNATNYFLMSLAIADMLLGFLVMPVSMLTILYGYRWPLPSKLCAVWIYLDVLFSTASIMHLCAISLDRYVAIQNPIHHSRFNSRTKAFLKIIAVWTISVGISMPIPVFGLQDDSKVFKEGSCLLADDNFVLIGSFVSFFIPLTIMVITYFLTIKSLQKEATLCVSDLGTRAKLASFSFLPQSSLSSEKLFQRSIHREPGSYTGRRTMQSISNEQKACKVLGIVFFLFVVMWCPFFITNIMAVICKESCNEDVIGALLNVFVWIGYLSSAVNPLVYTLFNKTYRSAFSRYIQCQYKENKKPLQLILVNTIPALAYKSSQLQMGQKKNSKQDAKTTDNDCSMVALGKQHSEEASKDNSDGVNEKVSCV
Briefly: GPCR Profiler. Type of data set: cell-based. On the procedure:
(§1) GPCR profiling assays were performed by Millipore (St. Louis, MO) using in cells expressing Gα15, a promiscuous G protein that enhances GPCR coupling to downstream Ca2+ signaling pathways. KinomeScan was conducted by DiscoveRx (Fremont, CA).
(§2) To identify the target of OGM1, the molecule was profiled for binding in a panel of 442 kinases (KinomeScan™, DiscoveRx™) and assessed its activity against 158 GPCRs in a single-point assay in Chem-1 cells that uses a promiscuous Gα15 protein to trigger calcium flux (see Table 9 and Table 10, below). […] Table 9. KinomeScan (DiscoverRx) profiling of OGM1.

For another data set, the target named is T5, PRP (Homo sapiens, UniProt P49683).
T5 construct: host or cells: Chem-1 cells with Gα15
T5 sequence (P49683 whole entry): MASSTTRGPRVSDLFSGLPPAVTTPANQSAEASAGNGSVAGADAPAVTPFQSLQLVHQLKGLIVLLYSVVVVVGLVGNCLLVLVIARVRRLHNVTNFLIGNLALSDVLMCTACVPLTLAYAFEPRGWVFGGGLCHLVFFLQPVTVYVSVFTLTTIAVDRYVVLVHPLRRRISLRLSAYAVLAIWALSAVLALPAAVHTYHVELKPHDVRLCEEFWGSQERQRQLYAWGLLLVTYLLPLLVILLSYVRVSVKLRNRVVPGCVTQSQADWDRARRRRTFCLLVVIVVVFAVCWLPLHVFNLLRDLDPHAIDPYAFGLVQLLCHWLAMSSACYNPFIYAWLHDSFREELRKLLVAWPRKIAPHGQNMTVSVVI
Briefly: GPCR Profiler. Type of data set: cell-based. As to the method: as §1, §2

In another data set the target is T6, sst3 (Homo sapiens, UniProt P32745).
T6 construct: host or cells: Chem-1 cells with Gα15
T6 sequence (P32745 whole entry, species assumed): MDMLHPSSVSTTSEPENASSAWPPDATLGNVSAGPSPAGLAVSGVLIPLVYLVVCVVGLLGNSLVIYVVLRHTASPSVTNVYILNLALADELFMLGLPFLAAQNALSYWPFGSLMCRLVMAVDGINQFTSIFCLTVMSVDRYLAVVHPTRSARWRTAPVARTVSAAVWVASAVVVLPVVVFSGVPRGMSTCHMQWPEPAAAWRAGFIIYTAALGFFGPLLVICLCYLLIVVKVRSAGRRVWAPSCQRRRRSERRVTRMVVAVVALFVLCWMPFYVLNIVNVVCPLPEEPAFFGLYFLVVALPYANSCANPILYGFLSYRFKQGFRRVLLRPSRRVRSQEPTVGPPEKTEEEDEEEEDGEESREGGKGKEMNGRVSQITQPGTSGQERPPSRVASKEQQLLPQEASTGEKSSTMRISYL
Briefly: GPCR Profiler. Type of data set: cell-based.

A further data set addresses T7, JNK1 (Homo sapiens, UniProt P45983).
T7 construct: purchased DiscoveRx
Briefly: KinomeScan. Type of data set: binding. As to conditions: read-out: % Control.

Another data set addresses T8, PIM2 (Homo sapiens, UniProt Q9P1W9).
T8 construct: purchased DiscoveRx (Fremont, CA)
Briefly: KinomeScan. Format: binding. The conditions noted are these: read-out: % Control.

The target of a further data set is T9, PFTAIRE2 (Homo sapiens, UniProt Q96Q40).
T9 construct: purchased DiscoveRx (Fremont, CA)
Briefly: KinomeScan. Format: binding. As to conditions: read-out: % Control.

The target in data set [1] is T10, ABL1(H396P)-phosphorylated (Homo sapiens, UniProt P00519, H396P).
T10 construct: purchased DiscoveRx
Briefly: KinomeScan. Format: binding. As to conditions: read-out: % Control.

The target of the next data set is T11, YANK2 (Homo sapiens, UniProt Q9NY57).
T11 construct: purchased DiscoveRx
Briefly: KinomeScan. Type of data set: binding. The conditions noted are these: read-out: % Control.

Another data set has as its target T12, CCR5 (Macaca mulatta, UniProt P61813).
T12 construct: host or cells: Chem-1 cells with Gα15
The experiment in a line: GPCR Profiler. Format: cell-based.

Another data set has as its target T13, SGK3 (Homo sapiens, UniProt Q96BR1).
T13 construct: purchased DiscoveRx (Fremont, CA)
The experiment in a line: KinomeScan. Format: binding. As to conditions: read-out: % Control.

The next data set concerns the target T14, EGFR(L858R, T790M) (Homo sapiens, UniProt P00533, L858R/T790M).
T14 construct: purchased DiscoveRx (Fremont, CA), KinomeScan service
The experiment in a line: KinomeScan. The conditions noted are these: read-out: % Control. Type of data set: binding.

A further data set concerns the target T15, MAPKAPK2 (Homo sapiens, UniProt P49137).
T15 construct: purchased DiscoveRx (Fremont, CA)
The experiment in a line: KinomeScan. Type of data set: binding. The conditions noted are these: read-out: % Control.

A further data set deals with T16, CDK4-cyclinD3 (Homo sapiens, UniProt P11802).
T16 construct: purchased DiscoveRx (KinomeScan service)
T16 sequence (P11802 whole entry): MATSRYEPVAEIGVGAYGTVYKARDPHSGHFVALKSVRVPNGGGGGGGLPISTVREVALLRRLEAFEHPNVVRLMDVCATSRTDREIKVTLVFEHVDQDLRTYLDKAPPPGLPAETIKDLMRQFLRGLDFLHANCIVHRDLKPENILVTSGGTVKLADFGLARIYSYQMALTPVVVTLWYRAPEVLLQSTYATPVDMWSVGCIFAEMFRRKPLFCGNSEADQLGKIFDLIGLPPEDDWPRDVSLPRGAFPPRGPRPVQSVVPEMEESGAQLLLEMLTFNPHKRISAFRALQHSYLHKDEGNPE
T16 sequence (P30281 whole entry partner): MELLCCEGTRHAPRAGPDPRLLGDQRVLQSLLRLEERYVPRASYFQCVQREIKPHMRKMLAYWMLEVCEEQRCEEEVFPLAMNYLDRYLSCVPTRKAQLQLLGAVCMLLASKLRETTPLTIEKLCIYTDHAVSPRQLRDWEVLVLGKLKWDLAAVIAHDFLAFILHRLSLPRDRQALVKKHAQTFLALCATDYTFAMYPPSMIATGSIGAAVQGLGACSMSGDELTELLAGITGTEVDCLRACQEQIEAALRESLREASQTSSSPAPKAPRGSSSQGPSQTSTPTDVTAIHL
The experiment in a line: KinomeScan. Format: binding. As to conditions: read-out: % Control.

Another data set deals with CSNK1E (Homo sapiens, UniProt P49674). Briefly: KinomeScan. Format: binding. The conditions noted are these: read-out: % Control.
The target of another data set is T17, PLK4 (Homo sapiens, UniProt O00444).
T17 construct: purchased DiscoveRx (Fremont, CA)
Briefly: KinomeScan. Type of data set: binding. The conditions noted are these: read-out: % Control.

Another data set concerns the target T18, IKK-epsilon (Homo sapiens, UniProt Q14164).
T18 construct: purchased DiscoveRx (Fremont, CA)
Briefly: KinomeScan. As to conditions: read-out: % Control. Type of data set: binding.

The next data set deals with T19, NK1 (Homo sapiens, UniProt P25103).
T19 construct: host or cells: Chem-1 cells expressing Gα15
T19 sequence (P25103 whole entry): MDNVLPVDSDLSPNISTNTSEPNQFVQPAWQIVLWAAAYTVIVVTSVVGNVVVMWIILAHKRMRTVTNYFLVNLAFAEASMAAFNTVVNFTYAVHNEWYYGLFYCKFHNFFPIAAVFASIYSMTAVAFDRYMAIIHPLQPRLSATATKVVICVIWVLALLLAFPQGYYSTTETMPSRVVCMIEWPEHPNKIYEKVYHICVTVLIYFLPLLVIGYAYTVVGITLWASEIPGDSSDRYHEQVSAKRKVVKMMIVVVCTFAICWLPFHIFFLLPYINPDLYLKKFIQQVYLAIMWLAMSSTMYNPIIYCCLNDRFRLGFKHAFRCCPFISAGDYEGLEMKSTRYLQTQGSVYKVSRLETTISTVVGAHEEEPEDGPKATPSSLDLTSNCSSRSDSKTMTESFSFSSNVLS
The experiment in a line: GPCR Profiler. Type of data set: cell-based.

The target in the next data set is T20, KIT(V559D, V654A) (Homo sapiens, UniProt P10721, V559D/V654A).
T20 construct: purchased DiscoveRx
Briefly: KinomeScan. Format: binding. The conditions noted are these: read-out: % Control.

Another data set deals with T21, KIT (Homo sapiens, UniProt P10721).
T21 construct: purchased DiscoveRx
Briefly: KinomeScan. Format: binding. The conditions noted are these: read-out: % Control.

The target in the next data set is T22, ALK (Homo sapiens, UniProt Q9UM73).
T22 construct: purchased DiscoveRx (Fremont, CA)
Briefly: KinomeScan. Format: binding. As to conditions: read-out: % Control.

The target of a further data set is T23, IRAK4 (Homo sapiens, UniProt Q9NWZ3).
T23 construct: purchased DiscoveRx (Fremont, CA)
The experiment in a line: KinomeScan. Format: binding. As to conditions: read-out: % Control.

The target in a further data set is T24, PIK3CB (Homo sapiens, UniProt P42338).
T24 construct: purchased DiscoveRx (Fremont, CA)
The experiment in a line: KinomeScan. As to conditions: read-out: % Control. Type of data set: binding.

Another data set deals with T25, FLT1 (Homo sapiens, UniProt P17948).
T25 construct: purchased DiscoveRx (Fremont, CA)
The experiment in a line: KinomeScan. Type of data set: binding. As to conditions: read-out: % Control.

The next data set has as its target T26, PRKG1 (Homo sapiens, UniProt Q13976).
T26 construct: purchased DiscoveRx (Fremont, CA)
Briefly: KinomeScan. Format: binding. The conditions noted are these: read-out: % Control.

The target of a further data set is T27, ERBB4 (Homo sapiens, UniProt Q15303).
T27 construct: purchased DiscoveRx (Fremont, CA)
Briefly: KinomeScan. Format: binding. The conditions noted are these: read-out: % Control.

In another data set the target is T28, Motilin (Homo sapiens, UniProt O43193).
T28 construct: host or cells: Chem-1 cells expressing Gα15
T28 sequence (O43193 whole entry): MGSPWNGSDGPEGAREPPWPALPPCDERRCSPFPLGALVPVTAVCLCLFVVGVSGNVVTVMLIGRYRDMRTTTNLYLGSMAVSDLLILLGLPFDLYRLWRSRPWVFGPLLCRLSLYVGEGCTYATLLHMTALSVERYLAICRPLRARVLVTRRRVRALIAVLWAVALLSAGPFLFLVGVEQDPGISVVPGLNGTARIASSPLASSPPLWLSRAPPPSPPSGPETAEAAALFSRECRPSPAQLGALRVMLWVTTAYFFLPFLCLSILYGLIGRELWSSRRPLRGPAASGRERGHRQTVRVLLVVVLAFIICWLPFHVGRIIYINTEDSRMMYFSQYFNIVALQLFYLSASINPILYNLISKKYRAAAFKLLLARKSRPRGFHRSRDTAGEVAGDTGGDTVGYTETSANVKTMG
Briefly: GPCR Profiler. Type of data set: cell-based.

The next data set addresses T29, AURKB (Homo sapiens, UniProt Q96GD4).
T29 construct: purchased DiscoveRx (Fremont, CA)
The experiment in a line: KinomeScan. Type of data set: binding. The conditions noted are these: read-out: % Control.

A further data set has as its target T30, CDK11 (Homo sapiens, UniProt Q9BWU1).
T30 construct: purchased DiscoveRx (KinomeScan service)
Briefly: KinomeScan. Type of data set: binding. The conditions noted are these: read-out: % Control.

The next data set concerns zebrafish embryos. Briefly: Acridine orange stain of zebrafish embryos (cell death). The conditions noted are these: in vivo.
The subject of another data set is PANC02. Briefly: Clonogenicity (crystal violet). The conditions noted are these: 7 days. Type of data set: cell-based. On the procedure:
In a third study, PANC02 pancreatic cells were plated at 400 cells per well in a 6-well plate and on the next day were treated with increasing concentrations of OGM2 for 7 days. The plate was fixed with formalin and stained with crystal violet.

T30 sequence (Q9BWU1 whole entry): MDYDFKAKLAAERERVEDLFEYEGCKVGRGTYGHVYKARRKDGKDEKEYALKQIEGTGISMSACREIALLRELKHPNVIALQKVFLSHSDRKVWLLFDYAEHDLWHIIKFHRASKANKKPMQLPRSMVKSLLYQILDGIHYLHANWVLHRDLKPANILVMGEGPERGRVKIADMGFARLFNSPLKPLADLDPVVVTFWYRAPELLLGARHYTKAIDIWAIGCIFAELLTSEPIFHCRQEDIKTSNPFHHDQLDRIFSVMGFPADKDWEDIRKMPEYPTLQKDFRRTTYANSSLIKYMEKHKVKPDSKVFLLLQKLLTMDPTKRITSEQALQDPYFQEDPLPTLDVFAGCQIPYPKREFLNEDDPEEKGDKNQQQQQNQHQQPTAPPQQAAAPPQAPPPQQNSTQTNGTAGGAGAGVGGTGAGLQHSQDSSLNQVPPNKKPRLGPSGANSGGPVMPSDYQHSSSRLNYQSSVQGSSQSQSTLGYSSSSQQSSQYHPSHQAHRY
T8 sequence (Q9P1W9 whole entry): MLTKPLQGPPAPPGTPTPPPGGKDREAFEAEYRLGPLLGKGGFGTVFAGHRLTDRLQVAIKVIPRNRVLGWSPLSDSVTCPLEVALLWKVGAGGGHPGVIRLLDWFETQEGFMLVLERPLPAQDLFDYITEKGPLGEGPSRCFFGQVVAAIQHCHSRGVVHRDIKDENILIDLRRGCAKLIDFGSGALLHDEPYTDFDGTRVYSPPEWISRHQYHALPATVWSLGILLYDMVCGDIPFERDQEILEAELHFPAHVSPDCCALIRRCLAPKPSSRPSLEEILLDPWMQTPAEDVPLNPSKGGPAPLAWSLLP

On to `CCc1ccc2c(c1)C1(NN=C(c3cccc4ccccc34)S1)C(=O)N2` (stereo not drawn) [OGM1, 5-ethyl-5′-naphthalen-1-ylspiro[1H-indole-3,2′-3H-1,3,4-thiadiazole]-2-one], for which the remaining binding at 10 µM came to 100% at CDK2; 100% on MAP4K5; 100% on MLK1; 63% on JNK1; 84% at PIM2; 93% at PFTAIRE2. Further, the remaining binding at 10 µM in data set [1] came out at 83%; at YANK2, 100%; at SGK3 it was 56%; on EGFR(L858R, T790M), 89%; on MAPKAPK2, 100%; at CDK4-cyclinD3, 76%. The remaining binding at 10 µM at CSNK1E was determined as 91%; on PLK4, 71%; at IKK-epsilon, 100%; on KIT(V559D, V654A), 100%; on KIT, 79%; at ALK, 100%. The remaining binding at 10 µM at IRAK4 is 88%; at PIK3CB it was 100%; at FLT1, 100%; on PRKG1, 100%; at ERBB4, 100%; at AURKB, 86%. Besides, on CDK11, the remaining binding at 10 µM was 100%. Also, the Antagonism at 5-HT2A (10 uM) is on record as −12.3; on PRP (10 uM), −11.1; on sst3 (10 uM), 0; at CCR5 (10 uM), 15.8; on NK1 (10 uM), −1.4; on Motilin (10 uM) it was −0.7. Further, the Agonism at 5-HT2A (12.5 uM) is given as 1.2; at PRP (12.5 uM), −0.3; on sst3 (12.5 uM), 0; at CCR5 (12.5 uM), 2.5; at NK1 (12.5 uM), −1.5; at Motilin (12.5 uM) it was 1.

For `CCc1ccc2c(c1)C1(NN=C(c3ccccc3)S1)C(=O)N2` (stereo not drawn) [OGM2], the excess cell death entry in the data set on zebrafish embryos is “did not induce excess cell death in zebrafish larvae”. Further, the clonogenicity result with PANC02 is “reduced the clonogenicity of pancreatic cancer cells”.

(Values after patent US20240327364A1, “THERAPEUTIC TARGETING OF GPR68 TO INDUCE FERROPTOSIS” (University Of Maryland, Baltimore, priority 2023, published 2024).)
